Assay [1] has as its target Programmed cell death protein 1 (Homo sapiens, UniProt Q15116). Nature of the assay: Binding affinity to human PD-1 assessed as dissociation constant by SPR assay.
In assay [2] the target is Programmed cell death 1 ligand 1 (Homo sapiens, UniProt Q9NZQ7). Nature of the assay: Binding affinity to human PDL1 assessed as dissociation constant by MST method.
Assay [3] addresses T1, Programmed cell death protein 1/Programmed cell death 1 ligand 1 (Homo sapiens, UniProt Q9NZQ7). Nature of the assay: Inhibition of human PD-1/PDL1 protein-protein interaction by HTRF assay. The assay is classed as protein-complex assay.
Assay [4] concerns the target T1, Programmed cell death protein 1/Programmed cell death 1 ligand 1. Nature of the assay: Inhibition of human PD-1/PDL1 protein-protein interaction by luminescence proximity homogeneous assay. The assay is classed as protein-complex assay.

pIC50, pKd: −log10 of the molar value.

T1 sequence (Q15116 whole entry): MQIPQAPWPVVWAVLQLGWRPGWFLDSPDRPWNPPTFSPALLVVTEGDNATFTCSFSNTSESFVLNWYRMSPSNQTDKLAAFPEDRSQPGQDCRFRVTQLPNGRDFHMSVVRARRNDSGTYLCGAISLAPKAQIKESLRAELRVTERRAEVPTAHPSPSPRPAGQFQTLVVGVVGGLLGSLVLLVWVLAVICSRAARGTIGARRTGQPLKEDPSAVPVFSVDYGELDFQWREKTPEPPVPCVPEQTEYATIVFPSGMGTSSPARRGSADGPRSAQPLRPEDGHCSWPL
T1 sequence (Q9NZQ7 whole entry): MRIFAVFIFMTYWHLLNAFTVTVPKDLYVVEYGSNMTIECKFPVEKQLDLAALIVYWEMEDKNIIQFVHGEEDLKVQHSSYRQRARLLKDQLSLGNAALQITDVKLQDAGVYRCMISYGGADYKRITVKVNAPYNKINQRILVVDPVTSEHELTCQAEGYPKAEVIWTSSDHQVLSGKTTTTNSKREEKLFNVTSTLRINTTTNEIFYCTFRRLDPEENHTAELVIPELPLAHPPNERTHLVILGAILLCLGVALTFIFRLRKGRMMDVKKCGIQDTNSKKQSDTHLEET
Sequence of Programmed cell death 1 ligand 1 (Q9NZQ7 whole entry): as above
Sequence of Programmed cell death protein 1 (Q15116 whole entry): as the sequence (Q15116 whole entry) above

As for `O=C(O)[C@@H](CO)NCc1cc(Cl)c(OCc2cccc(-c3ccccc3)c2Br)cc1OCc1ccc2nonc2c1`, the pKd in assay [1] was 8.48. `Cc1c(-c2ccccc2)cccc1N1C(=O)c2cc(CN[C@H](C(=O)O)C(C)O)c(OCc3cccc(C#N)c3)cc2C1=O` (some centres undefined): in assay [2], the pKd is 7.61. `Cc1c(COc2cc(OCc3ccc(OC(F)(F)F)cc3)c(N3CCCCC3C(=O)O)cc2Cl)cccc1-c1ccccc1` (centres undefined): the results for the pIC50 in assay [3] and in assay [4] were 7.25 and 5.82, respectively.

The values above are taken from ChEMBL document CHEMBL5223128, “Biphenyl-based small molecule inhibitors: Novel cancer immunotherapeutic agents targeting PD-1/PD-L1 interaction” (Bioorg Med Chem, 2022).
